Measurements published in the NIST ThermoML archive (doi:10.1016/j.fluid.2009.09.013).
± gives the expanded uncertainty stated by the source.

Tests used:
[1] = Molar enthalpy of transition or fusion; settings: Metastable crystal; DSC
[2] = Crystal; DTA

Molar enthalpy of transition or fusion [1]: 15.8 ± 0.43 kcal/mol | Normal melting temperature [2]: 112.60 ± 0.5 °C
Structure (SMILES): CC(C)(C)c1cc(CCC(=O)OCC(COC(=O)CCc2cc(C(C)(C)C)c(O)c(C(C)(C)C)c2)(COC(=O)CCc2cc(C(C)(C)C)c(O)c(C(C)(C)C)c2)COC(=O)CCc2cc(C(C)(C)C)c(O)c(C(C)(C)C)c2)cc(C(C)(C)C)c1O
